# Assay: recombinant barcode read abundance after kanamycin selection (control-corrected) (log10(CPM+1)); higher = more efficient recombination; sequences stand for … in AGTGCAGAGAAAATCGGCCAGTTTTCTCTGCCTGCAGTCCGCATGCCGT…AGATTTATGCAGCGGACTGCCTTTCTCCCAAAGTGATAAACCGGACAGTATCATGGACCGGTTTTCCCGGTAATCCGTATTTGCAAGGTTGGTTTCACT; site = the 11-nt target
# How it was run: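 Values are log10(CPM+1) from a pooled E. coli screen of targets paired with IS621 bridge RNA target-binding loops. Recombination efficiency here means counts per million of recombinant-junction barcodes, averaged and control-corrected. Plates were chloramphenicol/ampicillin LB agar for the control and chloramphenicol/ampicillin/kanamycin with 0.1 mM IPTG, two replicates each.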
# 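Note: IS621 recombinase and bridge RNA in Escherichia coli cells.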
row,Sequence,recombinant barcode read abundance (log10)
1,TAGGCGGCTTGGGTTCTAACCTGTTGCGT (site AGCTGTCCTCT),0.0593
2,TAGGCGGCTTGGGTTCTAACCTGTTGCGT (site TAGGCGGCTAC),2.63
3,TAGGCTCCTTGGGTTCTAACCTGTTGCAA (site TAGGCTCCTAT),0.309
4,TAGGCTCCTTGGGTTCTAACCTGTTGCAA (site TAGGCTCCTCT),0.0906
5,TAGGCTCCTTGGGTTCTAACCTGTTGCAA (site TAGGCTCCTGT),0
6,TAGGCTCCTTGGGTTCTAACCTGTTGCAA (site TAGGCTCCTTT),1.41
7,TAGGCTCCTTGGGTTCTAACCTGTTGCCG (site TAGCCTACTCG),0.00951
8,TAGGCTCCTTGGGTTCTAACCTGTTGCCG (site TAGGCTCCTCG),0.412
9,TAGGCTCCTTGGGTTCTAACCTGTTGCCT (site TAAGATCCTAG),0.205
10,TAGGCTCCTTGGGTTCTAACCTGTTGCCT (site TAGGCTCCTAG),0
11,TAGGGGACTTGGGTTCTAACCTGTTGCAA (site CGTCCTGCTAA),0.0997
12,TAGGGGACTTGGGTTCTAACCTGTTGCAA (site TAGGGGACTTT),2.27
13,TAGGTATCTTGGGTTCTAACCTGTTGCAG (site CCTTGTGCTAC),0.156
14,TAGGTATCTTGGGTTCTAACCTGTTGCAG (site TAGGTATCTCT),2.01
15,TAGGTCCCTTGGGTTCTAACCTGTTGCAT (site TAGGTACCTAT),0.389
16,TAGGTCCCTTGGGTTCTAACCTGTTGCAT (site TAGGTCCCTAT),1.85
17,TAGGTCCCTTGGGTTCTAACCTGTTGCAT (site TAGGTGCCTAT),0.0967
18,TAGGTCCCTTGGGTTCTAACCTGTTGCAT (site TAGGTTCCTAT),0.228
19,TAGGTCCCTTGGGTTCTAACCTGTTGCGA (site AAGGTCCCTCC),0.0896
20,TAGGTCCCTTGGGTTCTAACCTGTTGCGA (site TAGGTCCCTTC),3.11
21,TAGTAAGCTTGGGTTCTAACCTGTTGCCT (site TAGTAAGCTAG),1.23
22,TAGTAAGCTTGGGTTCTAACCTGTTGCCT (site TAGTATCCTAG),0.088
23,TAGTACCCTTGGGTTCTAACCTGTTGCAA (site TAGTACCCTAT),0.0814
24,TAGTACCCTTGGGTTCTAACCTGTTGCAA (site TAGTACCCTCT),0.104
25,TAGTACCCTTGGGTTCTAACCTGTTGCAA (site TAGTACCCTGT),0.0816
26,TAGTACCCTTGGGTTCTAACCTGTTGCAA (site TAGTACCCTTT),0.801

row,Sequence,recombinant barcode read abundance (log10)
1,TAGTACGCTTGGGTTCTAACCTGTTGCAG (site TAGTAAGCTCA),0.12
2,TAGTACGCTTGGGTTCTAACCTGTTGCAG (site TAGTACGCTCT),1.8
3,TAGTACGCTTGGGTTCTAACCTGTTGCTT (site ACACGGCCTCG),0.331
4,TAGTACGCTTGGGTTCTAACCTGTTGCTT (site TAGTACGCTAA),0.848
5,TAGTACTCTTGGGTTCTAACCTGTTGCTG (site TAGTACTCTAA),0.244
6,TAGTACTCTTGGGTTCTAACCTGTTGCTG (site TAGTACTCTCA),1.06
7,TAGTACTCTTGGGTTCTAACCTGTTGCTG (site TAGTACTCTGA),0.053
8,TAGTACTCTTGGGTTCTAACCTGTTGCTG (site TAGTACTCTTA),0.0609
9,TAGTAGTCTTGGGTTCTAACCTGTTGCAT (site TAGTAGTCTAA),0.503
10,TAGTAGTCTTGGGTTCTAACCTGTTGCAT (site TAGTAGTCTAC),1.14
11,TAGTAGTCTTGGGTTCTAACCTGTTGCAT (site TAGTAGTCTAG),0.596
12,TAGTAGTCTTGGGTTCTAACCTGTTGCAT (site TAGTAGTCTAT),2.12
13,TAGTAGTCTTGGGTTCTAACCTGTTGCTT (site TAGTAGTCTAA),1.55
14,TAGTAGTCTTGGGTTCTAACCTGTTGCTT (site TAGTAGTCTAC),0.635
15,TAGTAGTCTTGGGTTCTAACCTGTTGCTT (site TAGTAGTCTAG),0.659
16,TAGTAGTCTTGGGTTCTAACCTGTTGCTT (site TAGTAGTCTAT),1.15
17,TAGTGATCTTGGGTTCTAACCTGTTGCCT (site TAATGATCTAG),0
18,TAGTGATCTTGGGTTCTAACCTGTTGCCT (site TACTGATCTAG),0.072
19,TAGTGATCTTGGGTTCTAACCTGTTGCCT (site TAGTGATCTAG),0.783
20,TAGTGATCTTGGGTTCTAACCTGTTGCCT (site TATTGATCTAG),0.0361
21,TAGTGGCCTTGGGTTCTAACCTGTTGCTA (site CCTGACTCTAT),0
22,TAGTGGCCTTGGGTTCTAACCTGTTGCTA (site TAGTGGCCTTA),0.132
23,TAGTGGTCTTGGGTTCTAACCTGTTGCTA (site TAGTGGTCTAT),0.403
24,TAGTGGTCTTGGGTTCTAACCTGTTGCTA (site TAGTGGTCTTA),1.01
25,TAGTTTCCTTGGGTTCTAACCTGTTGCGT (site TAGTATCCTAC),0.3
26,TAGTTTCCTTGGGTTCTAACCTGTTGCGT (site TAGTCTCCTAC),0.0219

row,Sequence,recombinant barcode read abundance (log10)
1,TAGTTTCCTTGGGTTCTAACCTGTTGCGT (site TAGTGTCCTAC),0.206
2,TAGTTTCCTTGGGTTCTAACCTGTTGCGT (site TAGTTTCCTAC),0.875
3,TAGTTTGCTTGGGTTCTAACCTGTTGCGA (site CGTCGGACTCT),0.00829
4,TAGTTTGCTTGGGTTCTAACCTGTTGCGA (site TAGTTTGCTTC),0.171
5,TATAATTCTTGGGTTCTAACCTGTTGCTT (site TATAATTCTAA),0.164
6,TATAATTCTTGGGTTCTAACCTGTTGCTT (site TTCAATTCTAA),0.146
7,TATACAACTTGGGTTCTAACCTGTTGCCT (site TATAAAACTAG),0.089
8,TATACAACTTGGGTTCTAACCTGTTGCCT (site TATACAACTAG),0.112
9,TATACAACTTGGGTTCTAACCTGTTGCCT (site TATAGAACTAG),0.0301
10,TATACAACTTGGGTTCTAACCTGTTGCCT (site TATATAACTAG),0.0752
11,TATACAGCTTGGGTTCTAACCTGTTGCCT (site TAAACAGCTAG),0.156
12,TATACAGCTTGGGTTCTAACCTGTTGCCT (site TACACAGCTAG),0.192
13,TATACAGCTTGGGTTCTAACCTGTTGCCT (site TAGACAGCTAG),0.0546
14,TATACAGCTTGGGTTCTAACCTGTTGCCT (site TATACAGCTAG),0.592
15,TATACTACTTGGGTTCTAACCTGTTGCCT (site TATACTACTAG),0.0122
16,TATACTACTTGGGTTCTAACCTGTTGCCT (site TATACTGCTAG),0.0258
17,TATACTACTTGGGTTCTAACCTGTTGCTT (site CACACTACTAA),0.0534
18,TATACTACTTGGGTTCTAACCTGTTGCTT (site TATACTACTAA),0.0375
19,TATAGGACTTGGGTTCTAACCTGTTGCGT (site GATAGGACTAC),0.0102
20,TATAGGACTTGGGTTCTAACCTGTTGCGT (site TATAGGACTAC),2.03
21,TATAGTACTTGGGTTCTAACCTGTTGCCT (site TATAGTACTAG),0.152
22,TATAGTACTTGGGTTCTAACCTGTTGCCT (site TATTGTCCTAG),0.0337
23,TATCCATCTTGGGTTCTAACCTGTTGCCT (site TAACCATCTAG),0.0695
24,TATCCATCTTGGGTTCTAACCTGTTGCCT (site TACCCATCTAG),0.0382
25,TATCCATCTTGGGTTCTAACCTGTTGCCT (site TAGCCATCTAG),0.0545

# From the supplement of paper PMC11208160
